Test results published in patent publication US11090304B2 (Amgen Inc., priority 2018, dated 2021).

Legend:
[1] = target: GDP-bound KRAS protein (aa 1-169), containing both G12C and C118A amino acid substitutions (Homo sapiens, UniProt P01116, C118A/G12C); assay: Coupled nucleotide exchange assay (SOS-mediated, AlphaScreen); type: biochemical; settings: 5 min compound pre-incubation
[2] = test system: Phosphorylation of ERK1/2 in MIA PaCa-2 cells; assay: Phospho-ERK1/2 MSD assay in MIA PaCa-2 cells; type: cell-based; settings: Homo sapiens, MIA PaCa-2, 2 h, read-out: p-ERK IC50 (2 h; MIA PaCa-2), 2 h compound treatment
How it was run: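 MSD electrochemiluminescence readout of phospho-ERK1/2 in whole-cell lysates, IC50 by 4-parameter logistic fit. Compound titrations were applied for 2 or 4 h at 37 °C, 5% CO2, followed by 10 ng/mL EGF stimulation for 10 min before lysis.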

Chain of GDP-bound KRAS protein (aa 1-169), containing both G12C and C118A amino acid substitutions (P01116 1-169 isoform P01116-2 G12C/C118A): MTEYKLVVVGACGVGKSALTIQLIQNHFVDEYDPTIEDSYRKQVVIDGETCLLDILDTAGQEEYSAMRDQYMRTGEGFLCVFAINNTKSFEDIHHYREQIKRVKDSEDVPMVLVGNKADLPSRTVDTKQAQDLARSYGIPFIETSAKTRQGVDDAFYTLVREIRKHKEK

Structure (SMILES)	Coupled exchange IC50 (5 min) [1]	IC50 [2] [nM]
C=CC(=O)N1CCN(c2nc(=O)n(-c3nccnc3CC)c3nc(-c4ccccc4F)c(Cl)cc23)[C@@H](C)C1 [Example 54-38, 6-chloro-1-(3-ethyl-2-pyrazinyl)-7-(2-fluorophenyl)-4-((2S)-2-methyl-4-(2-propenoyl)-1-piperazinyl) pyrido[2,3-d]pyrimidin-2(1H)-one]	0.651 | nda μM	297
C=CC(=O)N1CCN(c2nc(=O)n(-c3ccccc3N(C)C)c3nc(-c4c(O)cccc4F)c(Cl)cc23)[C@@H](C)C1 [Example 54-42, 6-chloro-1-(2-(dimethylamino)phenyl)-7-(2-fluoro-6-hydroxyphenyl)-4-((2S)-2-methyl-4-(2-propenoyl)-1-piperazinyl) pyrido[2,3-d]pyrimidin-2(1H)-one]	0.79 | nda μM	322
C=CC(=O)N1CCN(c2nc(=O)n(-c3ccccc3C(C)C)c3nc(-c4cc(OC(F)F)ccc4F)c(Cl)cc23)[C@@H](C)C1 [Example 54-51, 6-chloro-7-(5-(difluoromethoxy)-2-fluorophenyl)-4-((2S)-2-methyl-4-(2-propenoyl)-1-piperazinyl)-1-(2-(2-propanyl)phenyl)pyrido [2,3-d]pyrimidin-2(1H)-one]	0.265 | nda μM	204
C=CC(=O)N1CCN(c2nc(=O)n(-c3nonc3C(C)C)c3nc(-c4c(O)cccc4F)c(Cl)cc23)[C@@H](C)C1 [Example 54-52, 6-chloro-7-(2-fluoro-6-hydroxyphenyl)-4-((2S)-2-methyl-4-(2-propenoyl)-1-piperazinyl)-1-(4-(2-propanyl)-1,2,5-oxadiazol-3-yl)pyrido[2,3-d]pyrimidin-2(1H)-one]	0.445 | nda μM	666
C=CC(=O)N1CCN(c2nc(=O)n(-c3ncc(C#N)cc3CC)c3nc(-c4c(O)cccc4F)c(Cl)cc23)[C@@H](C)C1 [Example 54-53, 6-(6-chloro~7-(2-fluoro-6-hydroxyphenyl)-4-((2S)-2-methyl-4-(2-propenoyl)-1-piperazinyl)-2-oxopyrido[2,3-d]pyrimidin-1(2H)-yl)-5-ethyl-3-pyridine-carbonitrile]	0.193 | nda μM	593
C=CC(=O)N1CCN(c2nc(=O)n(-c3cncnc3C3(C)CC3)c3nc(-c4ccccc4F)c(Cl)cc23)[C@@H](C)C1 [Example 54-54, 6-chloro-7-(2-fluorophenyl)-1-(4-(1-methyl-cyclopropyl)-5-pyrimidinyl)-4-((2S)-2-methyl-4-(2-propenoyl)-1-piperazinyl) pyrido[2,3-d]pyrimidin-2(1H)-one]	0.377 | nda μM	360
C=CC(=O)N1CCN(c2nc(=O)n(-c3cncnc3C3(C)CC3)c3nc(-c4c(O)cccc4F)c(Cl)cc23)[C@@H](C)C1 [Example 54-55, 6-chloro-7-(2-fluoro-6-hydroxyphenyl)-1-(4-(1-methyl-cyclopropyl)-5-pyrimidinyl)-4-((2S)-2-methyl-4-(2-propenoyl)-1-piperazinyl) pyrido[2,3-d]pyrimidin-2(1H)-one]	0.133 | nda μM	578
C=CC(=O)N1CCN(c2nc(=O)n(-c3c(C)cnn3C(C)C)c3nc(-c4ccc(F)cc4F)c(Cl)cc23)[C@@H](C)C1 [Example 54-71, 6-chloro-7-(2,4-difluorophenyl)-1-(4-methyl-1-(2-propanyl)-1H-pyrazol-5-yl)-4-((2S)-2-methyl-4-(2-propenoyl)-1-piperazinyl) pyrido[2,3-d]pyrimidin-2(1H)-one]	0.174 | nda μM	164
C=CC(=O)N1CCN(c2nc(=O)n(-c3c(C(C)C)n[nH]c3C(C)C)c3nc(-c4ccccc4F)c(Cl)cc23)[C@@H](C)C1 [Example 54-72, 6-chloro-1-(3,5-di(2-propanyl)-1H-pyrazol-4-yl)-7-(2-fluorophenyl)-4-((2S)-2-methyl-4-(2-propenoyl)-1-piperazinyl) pyrido[2,3-d]pyrimidin-2(1H)-one]	0.108 | nda μM	183
C=CC(=O)N1CCN(c2nc(=O)n(-c3c(OC)cccc3C(C)C)c3nc(-c4c(O)cccc4F)c(Cl)cc23)[C@@H](C)C1 [Example 54-73, 6-chloro-7-(2-fluoro-6-hydroxy-phenyl)-1-(2-methoxy-6-(2-propanyl)phenyl)-4-((2S)-2-methyl-4-(2-propenoyl)-1-piperazinyl) pyrido[2,3-d]pyrimidin-2(1H)-one]	0.062 | nda μM	64
C=CC(=O)N1CCN(c2nc(=O)n(-c3ccccc3-c3ccccc3)c3nc(-c4c(O)cccc4F)c(Cl)cc23)[C@@H](C)C1 [Example 54-74, 1-([biphenyl]-2-yl)-6-chloro-7-(2-fluoro-6-hydroxyphenyl)-4-((2S)-2-methyl-4-(2-propenoyl)-1-piperazinyl) pyrido[2,3-d]pyrimidin-2(1H)-one]	0.582 | nda μM	926
C=CC(=O)N1CCN(c2nc(=O)n(-c3ccccc3C(C)C)c3nc(-c4ccc(F)cc4O)c(Cl)cc23)[C@@H](C)C1 [Example 54-77, 6-chloro-7-(4-fluoro-2-hydroxy-phenyl)-4-((2S)-2-methyl-4-(2-propenoyl)-1-piperazinyl)-1-(2-(2-propanyl)phenyl)pyrido [2,3-d]pyrimidin-2(1H)-one]	0.218 | nda μM	158
C=CC(=O)N1CCN(c2nc(=O)n(-c3ccccc3C(C)C)c3nc(-c4cc(F)ccc4O)c(Cl)cc23)[C@@H](C)C1 [Example 54-78, 6-chloro-7-(5-fluoro-2-hydroxyphenyl)-4-((2S)-2-methyl-4-(2-propenoyl)-1-piperazinyl)-1-(2-(2-propanyl)phenyl)pyrido [2,3-d]pyrimidin-2(1H)-one]	0.326 | nda μM	171
C=CC(=O)N1CCN(c2nc(=O)n(-c3ccccc3C(C)C)c3nc(-c4c(O)cccc4Cl)c(Cl)cc23)[C@@H](C)C1 [Example 54-79, 6-chloro-7-(2-chloro-6-hydroxy-phenyl)-4-((2S)-2-methyl-4-(2-propenoyl)-1-piperazinyl)-1-(2-(2-propanyl)phenyl)pyrido [2,3-d]pyrimidin-2(1H)-one]	0.072 | nda μM	98
C=CC(=O)N1CCN(c2nc(=O)n(-c3ccccc3C(C)C)c3nc(-c4cc(OC)ccc4Cl)c(Cl)cc23)[C@@H](C)C1 [Example 54-89, 6-chloro-7-(2-chloro-5-methoxy-phenyl)-4-((2S)-2-methyl-4-(2-propenoyl)-1-piperazinyl)-1-(2-(2-propanyl)phenyl)pyrido [2,3-d]pyrimidin-2(1H)-one]	0.271 | nda μM	212
C=CC(=O)N1CCN(c2nc(=O)n(-c3ccccc3C(C)C)c3nc(-c4cc(O)ccc4Cl)c(Cl)cc23)[C@@H](C)C1 [Example 54-90, 6-chloro-7-(2-chloro-5-hydroxy-phenyl)-4-((2S)-2-methyl-4-(2-propenoyl)-1-piperazinyl)-1-(2-(2-propanyl)phenyl)pyrido [2,3-d]pyrimidin-2(1H)-one]	0.105 | nda μM	121
C=CC(=O)N1CCN(c2nc(=O)n(-c3ccccc3C(C)C)c3nc(-c4cc(O)cc(Cl)c4Cl)c(Cl)cc23)[C@@H](C)C1 [Example 54-91, 6-chloro-7-(2,3-dichloro-5-hydroxy-phenyl)-4-((2S)-2-methyl-4-(2-propenoyl)-1-piperazinyl)-1-(2-(2-propanyl)phenyl)pyrido [2,3-d]pyrimidin-2(1H)-one]	0.033 | nda μM	39
C=CC(=O)N1CCN(c2nc(=O)n(-c3ccccc3C(C)C)c3nc(-c4cc(N)ncc4Cl)c(Cl)cc23)[C@@H](C)C1 [Example 54-95, 7-(2-amino-5-chloro-4-pyridinyl)-6-chloro-4-((2S)-2-methyl-4-(2-propenoyl)-1-piperazinyl)-1-(2-(2-propanyl)phenyl)pyrido [2,3-d]pyrimidin-2(1H)-one]	0.756 | nda μM	821
C=CC(=O)N1CCN(c2nc(=O)n(-c3ccccc3C(C)C)c3nc(-c4cccnc4N)c(Cl)cc23)[C@@H](C)C1 [Example 54-96, 7-(2-amino-3-pyridinyl)-6-chloro-4-((2S)-2-methyl-4-(2-propenoyl)-1-piperazinyl)-1-(2-(2-propanyl)phenyl)pyrido [2,3-d]pyrimidin-2(1H)-one]	0.676 | nda μM	363
C=CC(=O)N1CCN(c2nc(=O)n(-c3ccccc3C3(C)CC3)c3nc(-c4c(O)cccc4F)c(Cl)cc23)[C@@H](C)C1 [Example 54-97, 6-chloro-7-(2-fluoro-6-hydroxyphenyl)-1-(2-(1-methylcyclopropyl)phenyl)-4-((2S)-2-methyl-4-(2-propenoyl)-1-piperazinyl) pyrido[2,3-d]pyrimidin-2(1H)-one]	0.128 | nda μM	256
C=CC(=O)N1CCN(c2nc(=O)n(-c3ccccc3C3(C)CC3)c3nc(-c4ccccc4F)c(Cl)cc23)[C@@H](C)C1 [Example 54-99, 6-chloro-7-(2-fluorophenyl)-1-(2-(1-methylcyclopropyl)phenyl)-4-((2S)-2-methyl-4-(2-propenoyl)-1-piperazinyl) pyrido[2,3-d]pyrimidin-2(1H)-one]	0.153 | nda μM	294
C=CC(=O)N1CCN(c2nc(=O)n(-c3ncccc3CC(C)C)c3nc(-c4c(O)cccc4F)c(Cl)cc23)[C@@H](C)C1 [Example 54-101, 6-chloro-7-(2-fluoro-6-hydroxyphenyl)-4-((2S)-2-methyl-4-(2-propenoyl)-1-piperazinyl)-1-(3-(2-methylpropyl)-2-pyridinyl) pyrido[2,3-d]pyrimidin-2(1H)-one]	0.162 | nda μM	157
